Data taken from patent US8916550B2, “Compounds for modulating TRPV3 function” (Hydra Biosciences, Inc., priority 2005, dated 2014).
Where two headings read alike, the source gives them in different places.

Columns and labels:
NaV1.2 = target: T1, NaV1.2 (Homo sapiens, UniProt Q99250); test: Selectivity patch clamp, NaV1.2 channel; assay type: cell-based; details: fold selective for TRPV3 over NaV1.2; tested up to 30 μM, IC50 estimated
T1 construct: expressed in transfected cells
From the text: (§1) Data is presented as fold selective.

TRPV1 (hTRPV1) = target: T2, TRPV1 (hTRPV1) (Homo sapiens, UniProt Q8NER1); test: Selectivity patch clamp, TRPV1 channel; assay type: cell-based; details: fold selective for TRPV3 over TRPV1; tested up to 30 μM, IC50 estimated
T2 construct: expressed in transfected cells
T2 sequence (Q8NER1 whole entry): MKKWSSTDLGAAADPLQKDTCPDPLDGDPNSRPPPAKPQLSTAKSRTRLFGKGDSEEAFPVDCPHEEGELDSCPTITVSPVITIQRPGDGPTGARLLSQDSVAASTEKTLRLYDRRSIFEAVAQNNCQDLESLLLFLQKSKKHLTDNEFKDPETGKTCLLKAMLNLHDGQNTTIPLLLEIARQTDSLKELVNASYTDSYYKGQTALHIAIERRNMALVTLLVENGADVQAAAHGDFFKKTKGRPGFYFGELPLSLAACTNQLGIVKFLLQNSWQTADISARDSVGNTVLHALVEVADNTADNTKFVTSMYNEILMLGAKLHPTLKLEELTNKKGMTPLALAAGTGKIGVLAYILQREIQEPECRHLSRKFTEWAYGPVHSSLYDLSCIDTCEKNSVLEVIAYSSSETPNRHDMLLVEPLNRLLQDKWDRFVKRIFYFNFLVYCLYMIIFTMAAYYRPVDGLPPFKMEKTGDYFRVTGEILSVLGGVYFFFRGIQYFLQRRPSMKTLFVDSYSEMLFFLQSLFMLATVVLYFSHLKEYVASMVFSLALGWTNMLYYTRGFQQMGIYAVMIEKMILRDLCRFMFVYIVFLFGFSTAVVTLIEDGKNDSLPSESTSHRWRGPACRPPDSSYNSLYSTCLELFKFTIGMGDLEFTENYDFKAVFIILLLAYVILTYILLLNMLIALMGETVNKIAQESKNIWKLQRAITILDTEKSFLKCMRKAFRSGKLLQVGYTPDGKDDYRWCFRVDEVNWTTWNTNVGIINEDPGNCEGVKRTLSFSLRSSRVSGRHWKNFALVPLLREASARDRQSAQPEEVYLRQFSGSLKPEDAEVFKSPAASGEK
From the text: as §1

rat TRPV6 (rTRPV6) [1] = target: T3, rat TRPV6 (rTRPV6) (Rattus norvegicus, UniProt Q9R186); test: Selectivity patch clamp, TRPV6 channel; assay type: cell-based; details: fold selective for TRPV3 over TRPV6; tested up to 30 μM, IC50 estimated
T3 construct: expressed in transfected cells
T3 sequence (Q9R186 1-767): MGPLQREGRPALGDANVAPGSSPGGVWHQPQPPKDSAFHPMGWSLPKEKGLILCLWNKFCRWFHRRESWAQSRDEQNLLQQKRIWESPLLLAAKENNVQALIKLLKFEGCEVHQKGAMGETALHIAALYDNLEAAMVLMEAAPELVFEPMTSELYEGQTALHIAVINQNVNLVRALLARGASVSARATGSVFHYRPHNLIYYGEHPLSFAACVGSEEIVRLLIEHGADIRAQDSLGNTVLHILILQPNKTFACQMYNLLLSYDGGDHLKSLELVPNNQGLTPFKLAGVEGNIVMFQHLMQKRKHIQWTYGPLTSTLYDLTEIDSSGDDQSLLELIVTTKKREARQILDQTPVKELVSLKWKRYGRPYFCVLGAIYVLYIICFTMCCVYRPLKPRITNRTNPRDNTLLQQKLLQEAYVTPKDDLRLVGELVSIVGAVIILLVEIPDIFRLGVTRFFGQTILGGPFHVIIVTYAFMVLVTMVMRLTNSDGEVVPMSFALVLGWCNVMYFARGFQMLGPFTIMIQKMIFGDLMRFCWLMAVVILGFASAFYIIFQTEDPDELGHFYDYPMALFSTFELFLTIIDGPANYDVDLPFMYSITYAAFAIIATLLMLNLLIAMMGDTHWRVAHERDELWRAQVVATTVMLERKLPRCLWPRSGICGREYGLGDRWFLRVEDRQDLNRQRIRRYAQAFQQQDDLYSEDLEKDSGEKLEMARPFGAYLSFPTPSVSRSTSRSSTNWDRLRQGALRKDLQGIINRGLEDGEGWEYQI
From the text: as §1

[2] = test system: Male Holtzman rats, thermal injury; test: Thermal injury model, thermal escape latency (Hargreaves); assay type: in vivo, rat
Method: The thermal injury model was used to evaluate the effectiveness of an exemplary TRPV3 inhibitor in the treatment of nociceptive pain. FIG. 1 provides a schematic representation of the protocol used to evaluate a TRPV3 inhibitor in the thermal injury model.
Briefly, the following protocol was followed. Male Holtzman rats (approximately 300 grams) were tested on thermal escape using a Hargreaves type apparatus. Under light anesthesia, a thermal injury (52° C. for 45 seconds) was applied to one heel. The animals were tested for thermal escape latency of the injured and uninjured paw before and at 30, 60, 80 and 120 minutes after injury. Drug (a TRPV3 inhibitor or morphine) or vehicle (0.5% methylcellulose) was administered after the baseline measurement and approximately 15-20 minutes prior to the thermal injury. In addition to the escape latency measurement, behavioral observations were made throughout the experiment.

[3] = test system: rats, CFA injected hindpaw; test: Complete Freund's Adjuvant (CFA) model of inflammatory pain, latency to withdrawal; assay type: in vivo, rat; details: for Effect relative to diclofenac / TRPV1 inhibitor: highest dose tested, 200 mg/kg; for Thermal hyperalgesia (latency to withdrawal): intraperitoneal, tested 45 minutes later
Method: As outlined above, the Complete Freund's Adjuvant (CFA) model is a model of inflammatory pain. As such, it may be used to evaluate effectiveness in relieving pain caused by inflammation, for example, pain due to arthritis and other inflammatory conditions. FIG. 9 provides a schematic representation of the protocol used to evaluate a TRPV3 inhibitor in the CFA model.
Naive rats were pretested for sensitivity to a heat stimulus in the Hargreaves apparatus. The next day, 100 μL of complete Freund's adjuvant (CFA) was injected into the plantar surface of the right hindpaw. Two days later, in the morning, the rats were again pretested. In the afternoon, rats were injected with either vehicle control (methylcellulose or PEG-400) or with drug (TRPV3 inhibitor 64, TRPV3 inhibitor 15, TRPV1 inhibitor A-425619, or the non-steroidal anti-inflammatory diclofenac). Drugs or vehicle were injected intraperitoneally, and 45 minutes later rats were tested for hyperalgesia by applying the heat source to the CFA injected and uninjected hindpaw and measuring latency to withdrawal.

[4] = test system: Male Holtzmann rats, intraplantar formalin; test: Formalin model following intrathecal delivery; assay type: in vivo, rat; details: 10 mg/kg intrathecally
From the text: As outlined above, the formalin model involves injection of a formalin solution intradermally or intraperitoneally. Injection of formalin solution invokes a biphasic response, and thus provides a model for both nociceptive and inflammatory pain. The formalin model was used to evaluate the effectiveness of an exemplary TRPV3 inhibitor in the treatment of pain following intrathecal (IT) delivery. Efficacy following intrathecal delivery provides evidence that the compound can act centrally.
Briefly, the following protocol was followed. Male Holtzmann rats received intraplantar injections of 50 μL of 2% formalin. Paw flinching was detected by an automated sensor detecting movement of a small metal band placed on the injected hind paw. Drug or vehicle was administered intrathecally approximately 15 minutes prior to the injection of formalin. The animal's response to injection of the irritant was measured by counting flinches per minutes during the Early Phase and during the Late Phase.
Flinches per minute, a measure of the pain and discomfort experienced by the animal, was measured following formalin injection in animals receiving either 10 mg/kg TRPV3 inhibitor (Compound 64) or a vehicle control (0.5% DCC). The TRPV3 inhibitor was formulated in 20% DMSO/20% cremaphore/10% cyclodextrin (DCC) and administered intrathecally. […]

[5] = test system: Male Holtzman rats, substance-P induced thermal hyperalgesia; test: Intrathecal substance-P induced thermal hyperalgesia; assay type: in vivo, rat; details: 200 mg/kg IP, 30 minutes prior to substance-P; p<0.05 between groups
Method: The efficacy of a TRPV3 antagonist in diminishing hyperalgesia was assessed in a model of intrathecal administered substance-P induced thermal hyperalgesia. Male Holtzman rats were used in this study and thermal escape was measured using a Hargreaves apparatus. Thermal escape was measured pre-treatment (baseline), and at intervals following intrathecal administration of substance-P (tested at 15, 30, 45, and 60 minutes post substance-P administration). Control animals were administered vehicle intraperitoneally after baseline assessment and 30 minutes prior to substance P administration. Experimental animals receiving a TRPV3 inhibitor (compound 64) were administered compound intraperitoneally after baseline assessment and 30 minutes prior to substance P administration.
Substance-P induced rats were surgically prepared with a lumbar intrathecal catheter using clean surgical technique while under inhalation anesthesia (isoflurane). The catheter was externalized at the back of the head to minimize handling of the animal during drug delivery. […]
Briefly, baseline mean paw latencies were determined prior to substance-P administration. […] After injection of substance P intrathecally via the previously placed catheter (counted as time=0), measurements of escape latency were taken at 15, 30, 45, and 60 minutes post-substance-P administration. […]

[6] = Plasma levels by HPLC/MS/MS after administration; assay type: in vivo; details: rat
Method: The plasma levels of TRPV3 inhibitor 15 were determined via HPLC/MS/MS following administration to male Sprague-Dawley rats. Rats were administered a single intravenous bolus dose of 1.2 mg/kg, an intraperitoneal dose of a suspension of 30 or 60 mg/kg, an oral dose of a solution of 8.6 mg/kg, or an oral dose of a suspension of 6.9 mg/kg.
For intravenous administration, TRPV3 inhibitor 15 solutions were formulated in Solutol at a target concentration of 0.25 mg/mL. The solution was administered as a rapid bolus (approximately 2-3 seconds) via the tail vein of conscious rats or via jugular vein catheter in anesthetized rats. The solution was administered at a dose volume of 4 mL/kg.
For intraperitoneal administration, TRPV3 inhibitor 15 was formulated as a uniform suspension in CMC (carboxymethylcellulose) at a target concentration of 5 mg/mL. The suspension was administered at a dose volume of 10 mL/kg.
For oral administration, TRPV3 inhibitor 15 was formulated as either a uniform suspension in CMC or as a solution in Solutol. The target concentration was 1 mg/mL. Oral administration was by gavage at a dose volume of 10 mL/kg to conscious, fasted, male Sprague-Dawley rats.

rat TRPV6 (rTRPV6) [7] = target: T3, rat TRPV6 (rTRPV6); details: (Clapham et al.); cited from earlier work
human ERG (hERG) = human ERG (hERG) (Homo sapiens, UniProt Q12809); test: Selectivity patch clamp, hERG channel; details: fold selective for TRPV3 over hERG; tested up to 30 μM, IC50 estimated
human ERG (hERG), sequence (Q12809 whole entry): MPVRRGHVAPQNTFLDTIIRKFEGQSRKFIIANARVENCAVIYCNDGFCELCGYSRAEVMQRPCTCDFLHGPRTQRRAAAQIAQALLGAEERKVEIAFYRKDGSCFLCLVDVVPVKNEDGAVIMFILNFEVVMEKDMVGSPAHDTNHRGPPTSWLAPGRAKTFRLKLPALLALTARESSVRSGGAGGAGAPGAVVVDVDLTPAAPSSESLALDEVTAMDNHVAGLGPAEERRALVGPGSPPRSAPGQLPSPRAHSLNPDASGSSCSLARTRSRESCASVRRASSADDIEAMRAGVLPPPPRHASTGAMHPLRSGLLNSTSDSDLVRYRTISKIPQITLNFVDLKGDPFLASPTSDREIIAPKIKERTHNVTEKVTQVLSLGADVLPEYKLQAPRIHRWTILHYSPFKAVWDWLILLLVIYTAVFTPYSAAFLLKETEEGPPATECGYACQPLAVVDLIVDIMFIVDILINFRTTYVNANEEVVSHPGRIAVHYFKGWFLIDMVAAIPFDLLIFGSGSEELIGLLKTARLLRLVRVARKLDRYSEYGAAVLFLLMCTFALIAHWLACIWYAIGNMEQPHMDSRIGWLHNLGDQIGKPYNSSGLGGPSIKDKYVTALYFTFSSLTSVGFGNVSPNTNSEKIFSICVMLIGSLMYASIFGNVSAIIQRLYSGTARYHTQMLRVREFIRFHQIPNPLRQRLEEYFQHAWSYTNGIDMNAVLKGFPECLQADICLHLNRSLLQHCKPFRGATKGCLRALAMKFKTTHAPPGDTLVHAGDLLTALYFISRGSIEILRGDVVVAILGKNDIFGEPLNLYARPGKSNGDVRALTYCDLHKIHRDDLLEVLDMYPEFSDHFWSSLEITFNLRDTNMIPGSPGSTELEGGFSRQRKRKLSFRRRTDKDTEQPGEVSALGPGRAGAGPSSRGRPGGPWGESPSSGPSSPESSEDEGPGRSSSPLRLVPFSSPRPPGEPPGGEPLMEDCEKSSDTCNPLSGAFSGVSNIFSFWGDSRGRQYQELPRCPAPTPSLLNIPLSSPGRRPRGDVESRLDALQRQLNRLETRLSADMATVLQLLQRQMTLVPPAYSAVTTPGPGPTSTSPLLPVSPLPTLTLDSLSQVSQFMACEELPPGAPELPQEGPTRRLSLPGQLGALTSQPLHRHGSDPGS
Method: Compounds of interest were tested against these channels at concentrations up to 30 μM, and the resulting data were used to estimate IC50. Data is presented as fold selective.

[8] = test system: Male Holtzman rats, thermal injury; details: Table B comparators; based on our data as well as data available in the literature; cited from earlier work
[9] = test system: rats, CFA injected hindpaw; details: Table B comparators; based on our data as well as data available in the literature; cited from earlier work

T1 sequence (Q99250 whole entry): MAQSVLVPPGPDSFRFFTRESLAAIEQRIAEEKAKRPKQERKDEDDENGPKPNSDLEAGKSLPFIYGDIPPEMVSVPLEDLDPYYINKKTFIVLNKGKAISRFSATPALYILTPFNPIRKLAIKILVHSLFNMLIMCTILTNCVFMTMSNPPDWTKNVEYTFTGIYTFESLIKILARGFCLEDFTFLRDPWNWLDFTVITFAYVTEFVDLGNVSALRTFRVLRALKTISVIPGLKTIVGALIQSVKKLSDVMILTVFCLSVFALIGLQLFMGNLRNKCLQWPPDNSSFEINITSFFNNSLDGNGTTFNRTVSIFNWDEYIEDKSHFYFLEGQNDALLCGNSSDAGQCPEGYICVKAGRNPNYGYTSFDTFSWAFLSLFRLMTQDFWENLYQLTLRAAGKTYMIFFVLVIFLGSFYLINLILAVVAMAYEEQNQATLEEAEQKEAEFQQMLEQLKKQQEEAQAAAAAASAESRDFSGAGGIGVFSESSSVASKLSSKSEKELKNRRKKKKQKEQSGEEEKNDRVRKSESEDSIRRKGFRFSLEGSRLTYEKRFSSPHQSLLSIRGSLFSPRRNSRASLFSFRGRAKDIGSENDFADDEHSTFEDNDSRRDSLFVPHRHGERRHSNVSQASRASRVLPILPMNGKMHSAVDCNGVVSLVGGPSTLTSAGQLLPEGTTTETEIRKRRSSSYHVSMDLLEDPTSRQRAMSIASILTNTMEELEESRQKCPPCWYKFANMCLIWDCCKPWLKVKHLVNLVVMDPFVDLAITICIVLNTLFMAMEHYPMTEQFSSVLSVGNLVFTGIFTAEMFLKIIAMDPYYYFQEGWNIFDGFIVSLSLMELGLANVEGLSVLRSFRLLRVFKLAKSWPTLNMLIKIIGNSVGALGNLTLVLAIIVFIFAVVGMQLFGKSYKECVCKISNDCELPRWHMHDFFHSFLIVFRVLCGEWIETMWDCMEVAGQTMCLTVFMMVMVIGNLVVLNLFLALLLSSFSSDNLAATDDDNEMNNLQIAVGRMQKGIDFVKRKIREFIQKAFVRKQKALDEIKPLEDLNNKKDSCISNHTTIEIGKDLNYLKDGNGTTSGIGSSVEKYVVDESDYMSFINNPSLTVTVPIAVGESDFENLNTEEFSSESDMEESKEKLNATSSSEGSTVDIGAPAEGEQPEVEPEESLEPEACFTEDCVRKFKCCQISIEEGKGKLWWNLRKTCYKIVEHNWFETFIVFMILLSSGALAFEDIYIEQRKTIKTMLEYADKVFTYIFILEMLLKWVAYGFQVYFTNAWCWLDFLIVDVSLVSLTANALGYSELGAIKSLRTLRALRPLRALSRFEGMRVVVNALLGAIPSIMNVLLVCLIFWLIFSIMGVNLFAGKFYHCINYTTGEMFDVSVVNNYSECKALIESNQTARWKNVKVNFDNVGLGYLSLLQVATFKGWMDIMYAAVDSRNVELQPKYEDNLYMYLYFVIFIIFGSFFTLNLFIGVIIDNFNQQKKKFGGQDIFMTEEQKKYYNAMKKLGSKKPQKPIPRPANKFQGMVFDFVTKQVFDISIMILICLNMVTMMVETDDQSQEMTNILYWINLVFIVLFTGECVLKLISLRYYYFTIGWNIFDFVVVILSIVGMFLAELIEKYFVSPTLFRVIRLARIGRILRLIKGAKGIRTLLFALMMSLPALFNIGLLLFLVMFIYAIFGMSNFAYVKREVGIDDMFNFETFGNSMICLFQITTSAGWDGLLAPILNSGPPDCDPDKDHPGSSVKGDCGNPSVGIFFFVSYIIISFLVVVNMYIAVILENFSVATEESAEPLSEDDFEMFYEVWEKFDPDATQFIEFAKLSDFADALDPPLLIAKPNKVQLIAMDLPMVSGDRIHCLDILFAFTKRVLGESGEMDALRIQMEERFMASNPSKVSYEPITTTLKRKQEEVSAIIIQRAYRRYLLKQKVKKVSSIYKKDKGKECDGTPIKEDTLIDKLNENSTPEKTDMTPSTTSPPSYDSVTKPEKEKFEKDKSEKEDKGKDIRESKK

SMILES: O=C(CSc1nc2ccccc2s1)N1CCCc2ccccc21 [Compound 64, 2-(Benzo[d]thiazol-2-ylthio)-1-(3,4-dihydroquinolin-1(2H)-yl)ethanone]
- TRPV3:NaV1.2 fold selectivity (NaV1.2): >40 fold
- TRPV3:TRPV1 fold selectivity (TRPV1 (hTRPV1)): >40 fold
- TRPV3:TRPV6 fold selectivity (rat TRPV6 (rTRPV6) [1]): >40 fold
- Escape latency in the injured paw ([2]; 200 mg/kg): comparable to that observed prior to injury
- Escape latency in the uninjured paw ([2]; even at the highest concentrations administered (FIG. 3)): no effect on the uninjured paw
- Escape latency in the injured paw ([2]; increasing concentrations of inhibitor vs methylcellulose control (FIG. 2)): significantly diminished pain
- Effect relative to diclofenac / TRPV1 inhibitor [3]: more potent than the effects of either the non-steroidal anti-inflammatory or the TRPV1 inhibitor
- Pain sensitivity of inflamed paw ([3]; individual rats, FIG. 11): returns pain sensitivity to baseline levels
- Thermal hyperalgesia (latency to withdrawal) [3]: reduced thermal hyperalgesia
- Flinches per minute ([4]; about 15 minutes prior to formalin, vs vehicle): substantially reduced the flinches per minute
- Flinches per minute, Late Phase ([4]; Late Phase): statistically significant reduction
- Thermal hyperalgesia (mean paw latency) [5]: reversed the hyperalgesia

SMILES: Cc1cccc2c1N(C(=O)CSc1nc3cc(Cl)ccc3s1)CCC2 [Compound 15, 2-(5-Chlorobenzothiazol-2-ylsulfanyl)-1-(8-methyl-3,4-dihydro-2H-quinolin-1-yl)-ethanone]
- TRPV3:NaV1.2 fold selectivity (NaV1.2): >1000 fold
- TRPV3:TRPV1 fold selectivity (TRPV1 (hTRPV1)): >1000 fold
- TRPV3:TRPV6 fold selectivity (rat TRPV6 (rTRPV6) [1]): >1000 fold
- Effect relative to diclofenac / TRPV1 inhibitor [3]: more potent than the effects of the non-steroidal anti-inflammatory
- Thermal hyperalgesia (latency to withdrawal) [3]: reduced thermal hyperalgesia
- bioavailability ([6]; male, Sprague-Dawley, fasted rats, oral, solution or suspension, read-out: Estimated bioavailability): ~5%
- half-life ([6]; male Sprague-Dawley rats, read-out: Estimated half-life (converted)): 1.6 h
- clearance ([6]; male Sprague-Dawley rats, read-out: Estimated plasma clearance): 41 mL/min/kg
- Vd ([6]; male Sprague-Dawley rats, read-out: Estimated volume of distribution): 5.51 L/kg

SMILES: N.N.N.N.N.N.N.N.N.N.N.N.N.N.[Cl-].[Cl-].[Cl-].[Cl-].[Cl-].[Cl-].[O-2].[O-2].[Ru+3].[Ru+3].[Ru+4] [Ruthenium Red]
- TRPV3:TRPV1 fold selectivity (TRPV1 (hTRPV1)): 3 fold selective
- TRPV3:TRPV6 fold selectivity (rat TRPV6 (rTRPV6) [7]): 10 fold
- TRPV3:hERG fold selectivity (human ERG (hERG)): >40 fold

SMILES: Cc1cccc2c1N(C(=O)CSc1nc3ccccc3s1)CCC2 [Compound 46, 2-(Benzothiazol-2-ylsulfanyl)-1-(8-methyl-3,4-dihydro-2H-quinolin-1-yl)-ethanone]
- TRPV3:TRPV1 fold selectivity (TRPV1 (hTRPV1)): >200 fold

SMILES: NCC1(CC(=O)O)CCCCC1 [Gabapentin]
- Acute thermal injury [8]: Effective
- CFA Model [9]: Ineffective
